# Measured values published in article PMC11099041, “Tissue distribution and retention drives efficacy of rapidly clearing VHL-based PROTACs” (Communications Medicine, 2024).
# Several values for one entry are separate records, joined by “and”; a condition that tells them apart may be missing. Equal entries are not always repeated. Where two headings read alike, the source gives them in different places.
# Experiment: Mouse pharmacokinetics in CD-1 mice (blood, kidney, liver, lung)
# Assay type: in vivo
# Method: For the PK study, a total of 42 male CD-1 mice weighing ~20-35 g were acquired from Lingchang/Vital River Laboratory Animal Co., Ltd. (Shanghai/Beijing, P.R. China) and divided into 2 treatment groups. […] was dosed with one low dose (1 mg/kg) and one high dose group (20 mg/kg). For the low-dose groups, nine animals were required for organ quantification with termination at 24 hours. For the high-dose groups, 12 animals were required for organ quantification with termination at 48 hours. The animal was administered either 1 mg/kg or 20 mg/kg of formulation solution (10% HP-β-CD in acetate buffer at pH 4.0) by IV bolus through the left lateral tail vein injection. […] Blood samples were placed on wet ice, mixed, then frozen and stored in a freezer set to -60 °C or lower until analysis. After the blood samples were collected at the terminal time points, the animals were sacrificed, and the liver, lung and kidney were harvested. The tissues were rinsed in cold water and then blotted on filter papers, weighed and homogenized using pre-cooled water at the ratio of 1:4. The tissue homogenate samples were kept at -70 °C until analysis. […] Working standard solutions were spiked into 25 μL of blank matrix on the sample plate. […] The supernatant (20 μL) was transferred into the MS injection plate, then diluted with water before injection for LC-MS/MS analysis. The concentrations of […] were quantified by an LC-MS/MS method. The LC-MS/MS system was a Waters Acquity UPLC System (Milford, MA) coupled to a Sciex Triple Quad 6500 Plus mass spectrometer (AB Sciex, Foster City, CA). The aqueous mobile phase for the analysis was 0.1% formic acid and 2 mM ammonium formate in water/ACN (v:v, 95:5) (A), and the organic mobile phase was 0.1% formic acid and 2 mM ammonium formate in ACN/water (v:v, 95:5) (B). […] Column temperature was set at 50 °C. […] The flow rate was set at 0.7 mL/min. […] The lower limit of quantitation in all matrices was 5.1 ng/mL. The mean time concentration profile was generated for each group, and an overall AUC was then calculated with these sparse samples of rats and mice. […] The following parameters were estimated whenever possible: C0, Back-extrapolated concentration at time 0; Cmax, Maximum observed concentration; Tmax, Time of maximum observed concentration; AUC0-t, Area under the concentration-time curve from hour 0 to the last measurable concentration, estimated by the linear trapezoidal rule; AUC0-336, Area under the concentration-time curve from hour 0 to hour 336, estimated by the linear trapezoidal rule; DN AUC0-336, Dose normalized AUC0-336, calculated as AUC0-336/dose level; […] AUC0-∞ = AUC0-t + Ct/λz, where Ct is the last measurable concentration and λz is the elimination rate constant; t1/2, Elimination half-life, determined by ln(2)/λz; CL, Clearance, calculated as dose/AUC0-inf; Vd, Volume of distribution based on the terminal phase, calculated as: dose/(λz × AUC0-∞) Nominal doses and sampling times were used. […] Embedded zeros were excluded from kinetic analysis.
smiles,measurement,setting,value
Cc1ncsc1-c1ccc(C(C)NC(=O)C2CC(O)CN2C(=O)C(c2cc(N3CCC(CN4CCC(OC5CC(Oc6cc(N7C8CCC7CN(c7cc(-c9ccccc9O)nnc7N)C8)ccn6)C5)CC4)CC3)no2)C(C)C)cc1 (stereo not shown) [A947],concentration at 0.083 h,"Blood, 0.083 h, 1 mg/kg IV, individual animals, read-out: Concentration (µM) from 1 mg/kg Dosing Blood",0.351 µM and 0.406 µM
same,concentration at 8 h,"Blood, 0.083 h, 20 mg/kg IV, individual animals, read-out: Concentration (µM) from 20 mg/kg Dosing Blood",11.332 µM and 8.845 µM
same,concentration at 0.083 h,"Blood, 0.25 h, 1 mg/kg IV, individual animals, read-out: Concentration (µM) from 1 mg/kg Dosing Blood",0.084 µM and 0.113 µM
same,concentration at 8 h,"Blood, 0.25 h, 20 mg/kg IV, individual animals, read-out: Concentration (µM) from 20 mg/kg Dosing Blood",3.265 µM and 3.4 µM
same,concentration at 0.083 h,"Blood, 0.5 h, 1 mg/kg IV, individual animals, read-out: Concentration (µM) from 1 mg/kg Dosing Blood",0.044 µM and 0.066 µM
same,concentration at 8 h,"Blood, 0.5 h, 20 mg/kg IV, individual animals, read-out: Concentration (µM) from 20 mg/kg Dosing Blood",1.604 µM and 1.652 µM
same,concentration at 0.083 h,"Blood, 1 h, 1 mg/kg IV, individual animals, read-out: Concentration (µM) from 1 mg/kg Dosing Blood",0.02 µM and 0.026 µM
same,concentration at 8 h,"Blood, 1 h, 20 mg/kg IV, individual animals, read-out: Concentration (µM) from 20 mg/kg Dosing Blood",0.769 µM and 0.821 µM
same,concentration at 0.083 h,"Blood, 2 h, 1 mg/kg IV, individual animals, read-out: Concentration (µM) from 1 mg/kg Dosing Blood",0.009 µM and 0.013 µM
same,concentration at 8 h,"Blood, 2 h, 20 mg/kg IV, individual animals, read-out: Concentration (µM) from 20 mg/kg Dosing Blood",0.221 µM and 0.24 µM
same,Concentration (µM) from 1 mg/kg Dosing Blood,"Blood, 4 h, 1 mg/kg IV, individual animals, BLOQ <5.1 ng/mL",BLOQ *
same,concentration at 0.083 h,"Blood, 4 h, 1 mg/kg IV, individual animals, BLOQ <5.1 ng/mL, read-out: Concentration (µM) from 1 mg/kg Dosing Blood",0.006 µM
same,concentration at 8 h,"Blood, 4 h, 20 mg/kg IV, individual animals, read-out: Concentration (µM) from 20 mg/kg Dosing Blood",0.212 µM and 0.306 µM and 0.093 µM and 0.117 µM and 0.098 µM and 0.1 µM
same,Concentration (µM) from 1 mg/kg Dosing Blood,"Blood, 8 h, 1 mg/kg IV, individual animals, BLOQ <5.1 ng/mL",BLOQ *
same,concentration at 8 h,"Blood, 8 h, 20 mg/kg IV, individual animals, read-out: Concentration (µM) from 20 mg/kg Dosing Blood",0.067 µM and 0.056 µM and 0.036 µM and 0.037 µM
same,Concentration (µM) from 1 mg/kg Dosing Blood,"Blood, 12 h, 1 mg/kg IV, individual animals, BLOQ <5.1 ng/mL",BLOQ *
same,concentration at 8 h,"Blood, 12 h, 20 mg/kg IV, individual animals, read-out: Concentration (µM) from 20 mg/kg Dosing Blood",0.015 µM and 0.017 µM
same,Concentration (µM) from 1 mg/kg Dosing Blood,"Blood, 24 h, 1 mg/kg IV, individual animals, BLOQ <5.1 ng/mL",BLOQ *
same,Concentration (µM) from 20 mg/kg Dosing Blood,"Blood, 24 h, 20 mg/kg IV, individual animals, BLOQ <5.1 ng/mL",BLOQ *
same,Concentration (µM) from 20 mg/kg Dosing Blood,"Blood, 48 h, 20 mg/kg IV, individual animals, BLOQ <5.1 ng/mL",BLOQ *
same,concentration at 24 h,"Kidney, 4 h, 1 mg/kg IV, individual animals, read-out: Concentration (µM) from 1 mg/kg Dosing Kidney",0.541 µM and 0.391 µM
same,concentration at 8 h,"Kidney, 4 h, 20 mg/kg IV, individual animals, read-out: Concentration (µM) from 20 mg/kg Dosing Kidney",14.213 µM and 10.852 µM
same,concentration at 24 h,"Kidney, 8 h, 1 mg/kg IV, individual animals, read-out: Concentration (µM) from 1 mg/kg Dosing Kidney",0.341 µM and 0.338 µM
same,concentration at 8 h,"Kidney, 8 h, 20 mg/kg IV, individual animals, read-out: Concentration (µM) from 20 mg/kg Dosing Kidney",11.428 µM and 7.712 µM
same,concentration at 24 h,"Kidney, 24 h, 1 mg/kg IV, individual animals, read-out: Concentration (µM) from 1 mg/kg Dosing Kidney",0.025 µM and 0.027 µM
same,concentration at 8 h,"Kidney, 24 h, 20 mg/kg IV, individual animals, read-out: Concentration (µM) from 20 mg/kg Dosing Kidney",0.295 µM and 0.508 µM
same,concentration at 8 h,"Kidney, 48 h, 20 mg/kg IV, individual animals, read-out: Concentration (µM) from 20 mg/kg Dosing Kidney",0.083 µM and 0.066 µM
same,concentration at 24 h,"Liver, 4 h, 1 mg/kg IV, individual animals, read-out: Concentration (µM) from 1 mg/kg Dosing Liver",0.069 µM and 0.098 µM
same,concentration at 8 h,"Liver, 4 h, 20 mg/kg IV, individual animals, read-out: Concentration (µM) from 20 mg/kg Dosing Liver",66.456 µM and 51.09 µM and 27.754 µM
same,concentration at 24 h,"Liver, 8 h, 1 mg/kg IV, individual animals, read-out: Concentration (µM) from 1 mg/kg Dosing Liver",0.039 µM
same,concentration at 8 h,"Liver, 8 h, 20 mg/kg IV, individual animals, read-out: Concentration (µM) from 20 mg/kg Dosing Liver",18.535 µM and 24.009 µM
same,Concentration (µM) from 1 mg/kg Dosing Liver,"Liver, 24 h, 1 mg/kg IV, individual animals, BLOQ <5.1 ng/mL",BLOQ *
same,concentration at 8 h,"Liver, 24 h, 20 mg/kg IV, individual animals, read-out: Concentration (µM) from 20 mg/kg Dosing Liver",8.297 µM and 9.7 µM
same,concentration at 8 h,"Liver, 48 h, 20 mg/kg IV, individual animals, read-out: Concentration (µM) from 20 mg/kg Dosing Liver",1.133 µM and 2.43 µM and 2.132 µM
same,concentration at 24 h,"Lung, 4 h, 1 mg/kg IV, individual animals, read-out: Concentration (µM) from 1 mg/kg Dosing Lung",0.085 µM and 0.099 µM
same,concentration at 8 h,"Lung, 4 h, 20 mg/kg IV, individual animals, read-out: Concentration (µM) from 20 mg/kg Dosing Lung",6.463 µM and 5.695 µM
same,concentration at 24 h,"Lung, 8 h, 1 mg/kg IV, individual animals, read-out: Concentration (µM) from 1 mg/kg Dosing Lung",0.066 µM and 0.071 µM
same,concentration at 8 h,"Lung, 8 h, 20 mg/kg IV, individual animals, read-out: Concentration (µM) from 20 mg/kg Dosing Lung",2.286 µM and 3.054 µM
same,concentration at 24 h,"Lung, 24 h, 1 mg/kg IV, individual animals, read-out: Concentration (µM) from 1 mg/kg Dosing Lung",0.011 µM and 0.016 µM
same,concentration at 8 h,"Lung, 24 h, 20 mg/kg IV, individual animals, read-out: Concentration (µM) from 20 mg/kg Dosing Lung",0.718 µM and 0.295 µM and 0.794 µM
same,concentration at 8 h,"Lung, 48 h, 20 mg/kg IV, individual animals, read-out: Concentration (µM) from 20 mg/kg Dosing Lung",0.36 µM and 0.211 µM and 1.402 µM
same,half-life,"male, CD-1, mouse, blood and tissues (kidney, liver, lung), iv, CD-1 mice IV, dose = c0, matrix = c1 of the line",10 to 15 h
same,concentration at 0.25 h,"male, CD-1, mouse, blood, intravenous, 1 mg/kg, Blood, 0.25 h, 1 mg/kg IV, individual animals, read-out: Concentration (µM) from 1 mg/kg Dosing Blood",0.089 µM
same,concentration at 0.25 h,"male, CD-1, mouse, blood, intravenous, 1 mg/kg, Blood, 0.25 h, 1 mg/kg IV, mean, read-out: Concentration (µM) from 1 mg/kg Dosing Blood",0.095 µM
same,concentration at 0.5 h,"male, CD-1, mouse, blood, intravenous, 1 mg/kg, Blood, 0.5 h, 1 mg/kg IV, individual animals, read-out: Concentration (µM) from 1 mg/kg Dosing Blood",0.055 µM
same,concentration at 0.5 h,"male, CD-1, mouse, blood, intravenous, 1 mg/kg, Blood, 0.5 h, 1 mg/kg IV, mean, read-out: Concentration (µM) from 1 mg/kg Dosing Blood",0.055 µM
same,concentration at 1 h,"male, CD-1, mouse, blood, intravenous, 1 mg/kg, Blood, 1 h, 1 mg/kg IV, individual animals, read-out: Concentration (µM) from 1 mg/kg Dosing Blood",0.027 µM
same,concentration at 1 h,"male, CD-1, mouse, blood, intravenous, 1 mg/kg, Blood, 1 h, 1 mg/kg IV, mean, read-out: Concentration (µM) from 1 mg/kg Dosing Blood",0.024 µM
same,concentration at 2 h,"male, CD-1, mouse, blood, intravenous, 1 mg/kg, Blood, 2 h, 1 mg/kg IV, individual animals, read-out: Concentration (µM) from 1 mg/kg Dosing Blood",0.012 µM
same,concentration at 2 h,"male, CD-1, mouse, blood, intravenous, 1 mg/kg, Blood, 2 h, 1 mg/kg IV, mean, read-out: Concentration (µM) from 1 mg/kg Dosing Blood",0.011 µM
same,concentration at 12 h,"male, CD-1, mouse, blood, intravenous, 20 mg/kg, Blood, 12 h, 20 mg/kg IV, individual animals, read-out: Concentration (µM) from 20 mg/kg Dosing Blood",0.019 µM
same,concentration at 12 h,"male, CD-1, mouse, blood, intravenous, 20 mg/kg, Blood, 12 h, 20 mg/kg IV, mean, read-out: Concentration (µM) from 20 mg/kg Dosing Blood",0.017 µM
same,concentration at 24 h,"male, CD-1, mouse, blood, intravenous, 20 mg/kg, Blood, 24 h, 20 mg/kg IV, individual animals, BLOQ <5.1 ng/mL, read-out: Concentration (µM) from 20 mg/kg Dosing Blood",0.007 µM
same,concentration at 24 h,"male, CD-1, mouse, blood, intravenous, 20 mg/kg, Blood, 24 h, 20 mg/kg IV, mean, read-out: Concentration (µM) from 20 mg/kg Dosing Blood",0.007 µM
same,Vd,"male, CD-1, mouse, blood, iv, CD-1 mice IV, dose = c0",20 to 23 L/kg
same,concentration at 0.083 h,"male, CD-1, mouse, in vivo, 1 mg/kg, Blood, 0.083 h, 1 mg/kg IV, individual animals, read-out: Concentration (µM) from 1 mg/kg Dosing Blood",0.338 µM
same,concentration at 0.083 h,"male, CD-1, mouse, in vivo, 1 mg/kg, Blood, 0.083 h, 1 mg/kg IV, mean, read-out: Concentration (µM) from 1 mg/kg Dosing Blood",0.365 µM
same,concentration at 4 h,"male, CD-1, mouse, in vivo, 1 mg/kg, Blood, 4 h, 1 mg/kg IV, individual animals, BLOQ <5.1 ng/mL, read-out: Concentration (µM) from 1 mg/kg Dosing Blood",0.005 µM
